Reference: the supplement of paper PMC11208160

Assay: recombinant UMI read abundance after kanamycin selection (control-corrected) (log10(CPM+1)); higher = more efficient recombination; extreme values may be limits of the assay; sequences stand for … in AGTGCAGAGAAAATCGGCCAGTTTTCTCTGCCTGCAGTCCGCATGCCGTGGGACCCCTTGGGTTCTAACCTGTTGCCTAGATTTATGCAGCGGACTGCCTTTCTCCCAAAGTGATAAACCGG…AGGTTGGTTTCACT; site = the 11-nt donor
How it was run: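 Values are reported as log10(CPM+1), obtained by converting sequencing counts to CPM, averaging replicates and scaling by control-derived factors. The counts came from recombinant UMIs amplified by PCR across the donor–target junction. These UMIs came from a pooled Escherichia coli screen of donor and donor-binding-loop pairs for the IS621 bridge recombinase, plated with IPTG (0.07 mM) plus kanamycin or left unselected, in two replicates each.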
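Note: IS621 bridge recombinase in Escherichia coli cells against a fixed T5 target plasmid.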

Going from “CACGGCCCATGGACCGGTTTTCCCGGTAATCCGTATTTGTT (site CAAGGCCCTAA)” to “CACGGCCCATGGACCGGTTTTCCCGGTAATCCGTATTTGTT (site CACAGCCCTAA)”, the “recombinant UMI read abundance (log10)” value rises from 0.0138 to 0.215.

First: CACGGCCCATGGACCGGTTTTCCCGGTAATCCGTATTTGTT (site CACCGCCCTAA)
Second: CACGGCCCATGGACCGGTTTTCCCGGTAATCCGTATTTGTT (site CACGACCCTAA)
The “recombinant UMI read abundance (log10)” value of the first is lower: 0.0224 for the first, 0.652 for the second.

“CACGGCCCATGGACCGGTTTTCCCGGTAATCCGTATTTGTT (site CACGCCCCTAA)” and “CACGGCCCATGGACCGGTTTTCCCGGTAATCCGTATTTGTT (site CACGGACCTAA)” are within 0.2 log units of each other in “recombinant UMI read abundance (log10)” value: 0.0151 for the first, 0.0168 for the second.

“CACGGCCCATGGACCGGTTTTCCCGGTAATCCGTATTTGTT (site CACGGCACTAA)” and “CACGGCCCATGGACCGGTTTTCCCGGTAATCCGTATTTGTT (site CACGGCCCTAA)” are within 0.2 log units of each other in “recombinant UMI read abundance (log10)” value: 0.0172 for the first, 0.135 for the second.

Going from “CACGGCCCATGGACCGGTTTTCCCGGTAATCCGTATTTGTT (site CACGGCCCTAC)” to “CACGGCCCATGGACCGGTTTTCCCGGTAATCCGTATTTGTT (site CACGGCCCTAG)”, the “recombinant UMI read abundance (log10)” value rises from 0.017 to 1.14.

Going from “CACGGCCCATGGACCGGTTTTCCCGGTAATCCGTATTTGTT (site CACGGCCCTAT)” to “CACGGCCCATGGACCGGTTTTCCCGGTAATCCGTATTTGTT (site CACGGCCCTCA)”, the “recombinant UMI read abundance (log10)” value falls from 0.437 to 0.0268.

First: CACGGCCCATGGACCGGTTTTCCCGGTAATCCGTATTTGTT (site CACGGCCCTGA)
Second: CACGGCCCATGGACCGGTTTTCCCGGTAATCCGTATTTGTT (site CACGGCCCTTA)
The “recombinant UMI read abundance (log10)” value of the first is higher: 1.16 for the first, 0.0328 for the second.

Going from “CACGGCCCATGGACCGGTTTTCCCGGTAATCCGTATTTGTT (site CACGGCGCTAA)” to “CACGGCCCATGGACCGGTTTTCCCGGTAATCCGTATTTGTT (site CACGGCTCTAA)”, the “recombinant UMI read abundance (log10)” value rises from 0.0318 to 1.79.

First: CACGGCCCATGGACCGGTTTTCCCGGTAATCCGTATTTGTT (site CACGGGCCTAA)
Second: CACGGCCCATGGACCGGTTTTCCCGGTAATCCGTATTTGTT (site CACGGTCCTAA)
The “recombinant UMI read abundance (log10)” value of the first is lower: 0 for the first, 0.311 for the second.

“CACGGCCCATGGACCGGTTTTCCCGGTAATCCGTATTTGTT (site CACGTCCCTAA)” and “CACGGCCCATGGACCGGTTTTCCCGGTAATCCGTATTTGTT (site CACTGCCCTAA)” are within 0.2 log units of each other in “recombinant UMI read abundance (log10)” value: 0.0115 for the first, 0.0132 for the second.

“CACGGCCCATGGACCGGTTTTCCCGGTAATCCGTATTTGTT (site CAGGGCCCTAA)” and “CACGGCCCATGGACCGGTTTTCCCGGTAATCCGTATTTGTT (site CATGGCCCTAA)” are within 0.2 log units of each other in “recombinant UMI read abundance (log10)” value: 0.00724 for the first, 0.013 for the second.

“CACGGCCCATGGACCGGTTTTCCCGGTAATCCGTATTTGTT (site CCCGGCCCTAA)” and “CACGGCCCATGGACCGGTTTTCCCGGTAATCCGTATTTGTT (site CGCGGCCCTAA)” are within 0.2 log units of each other in “recombinant UMI read abundance (log10)” value: 0.0158 for the first, 0.0132 for the second.

“CACGGCCCATGGACCGGTTTTCCCGGTAATCCGTATTTGTT (site CTCGGCCCTAA)” and “CACGGCCCATGGACCGGTTTTCCCGGTAATCCGTATTTGTT (site GACGGCCCTAA)” are within 0.2 log units of each other in “recombinant UMI read abundance (log10)” value: 0.0153 for the first, 0.0197 for the second.

Compared with “CACGGCCCATGGACCGGTTTTCCCGGTAATCCGTATTTGTT (site TACGGCCCTAA)”, “CACGGCGCATGGACCGGTTTTCCCGGTAATCCGTATTTGTT (site CACGGCACTAA)” is higher in “recombinant UMI read abundance (log10)” value: 0.0279 for the first, 1.5 for the second.

Going from “CACGGCGCATGGACCGGTTTTCCCGGTAATCCGTATTTGTT (site CACGGCCCTAA)” to “CACGGCGCATGGACCGGTTTTCCCGGTAATCCGTATTTGTT (site CACGGCGCTAA)”, the “recombinant UMI read abundance (log10)” value rises from 0.445 to 1.74.

First: CACGGCGCATGGACCGGTTTTCCCGGTAATCCGTATTTGTT (site CACGGCTCTAA)
Second: CACGTATCATGGACCGGTTTTCCCGGTAATCCGTATTTGAC (site CACGTATCTGT)
The “recombinant UMI read abundance (log10)” value of the first is lower: 1.22 for the first, 2.78 for the second.

Compared with “CACGTATCATGGACCGGTTTTCCCGGTAATCCGTATTTGAC (site CTAGTATCTGT)”, “CACGTCACATGGACCGGTTTTCCCGGTAATCCGTATTTGGG (site CAAGTCACTCC)” is lower in “recombinant UMI read abundance (log10)” value: 1.1 for the first, 0.0977 for the second.

“CACGTCACATGGACCGGTTTTCCCGGTAATCCGTATTTGGG (site CACGTCACTCC)” and “CACGTCACATGGACCGGTTTTCCCGGTAATCCGTATTTGGG (site CAGGTCACTCC)” are within 0.2 log units of each other in “recombinant UMI read abundance (log10)” value: 0.0104 for the first, 0.00985 for the second.

Compared with “CACGTCACATGGACCGGTTTTCCCGGTAATCCGTATTTGGG (site CATGTCACTCC)”, “CACGTCCCATGGACCGGTTTTCCCGGTAATCCGTATTTGTT (site CACGACCCTAA)” is higher in “recombinant UMI read abundance (log10)” value: 0.012 for the first, 0.22 for the second.

Compared with “CACGTCCCATGGACCGGTTTTCCCGGTAATCCGTATTTGTT (site CACGCCCCTAA)”, “CACGTCCCATGGACCGGTTTTCCCGGTAATCCGTATTTGTT (site CACGGCCCTAA)” is lower in “recombinant UMI read abundance (log10)” value: 0.263 for the first, 0.00825 for the second.

“CACGTCCCATGGACCGGTTTTCCCGGTAATCCGTATTTGTT (site CACGTCCCTAA)” and “CACGTGGCATGGACCGGTTTTCCCGGTAATCCGTATTTGGA (site CACATGGCTTC)” are within 0.2 log units of each other in “recombinant UMI read abundance (log10)” value: 0.326 for the first, 0.429 for the second.

Compared with “CACGTGGCATGGACCGGTTTTCCCGGTAATCCGTATTTGGA (site CACCTGGCTTC)”, “CACGTGGCATGGACCGGTTTTCCCGGTAATCCGTATTTGGA (site CACGTGGCTTC)” is higher in “recombinant UMI read abundance (log10)” value: 0.475 for the first, 1.2 for the second.

Going from “CACGTGGCATGGACCGGTTTTCCCGGTAATCCGTATTTGGA (site CACTTGGCTTC)” to “CACTAGCCATGGACCGGTTTTCCCGGTAATCCGTATTTGCC (site CACTAGCCTGG)”, the “recombinant UMI read abundance (log10)” value rises from 0.235 to 0.665.

“CACTAGCCATGGACCGGTTTTCCCGGTAATCCGTATTTGCC (site CCCTAGCCTGG)” and “CACTAGCCATGGACCGGTTTTCCCGGTAATCCGTATTTGCC (site CGCTAGCCTGG)” are the same in “recombinant UMI read abundance (log10)” value: 0 for the first, 0 for the second.

First: CACTAGCCATGGACCGGTTTTCCCGGTAATCCGTATTTGCC (site CTCTAGCCTGG)
Second: CACTAGGCATGGACCGGTTTTCCCGGTAATCCGTATTTGAT (site CACTAGGCTAT)
The “recombinant UMI read abundance (log10)” value of the first is lower: 0 for the first, 1.33 for the second.

First: CACTCGACATGGACCGGTTTTCCCGGTAATCCGTATTTGTG (site CACTCGACTCA)
Second: CACTCGTCATGGACCGGTTTTCCCGGTAATCCGTATTTGCC (site CACTCATCTGG)
The “recombinant UMI read abundance (log10)” value of the first is lower: 0.319 for the first, 2.88 for the second.

Compared with “CACTCGTCATGGACCGGTTTTCCCGGTAATCCGTATTTGCC (site CACTCCTCTGG)”, “CACTCGTCATGGACCGGTTTTCCCGGTAATCCGTATTTGCC (site CACTCGTCTGG)” is higher in “recombinant UMI read abundance (log10)” value: 0 for the first, 3.2 for the second.

First: CACTCGTCATGGACCGGTTTTCCCGGTAATCCGTATTTGCC (site CACTCTTCTGG)
Second: CACTCTTCATGGACCGGTTTTCCCGGTAATCCGTATTTGTT (site CACTCTTCTAA)
The “recombinant UMI read abundance (log10)” value of the first is lower: 0 for the first, 1.58 for the second.

Compared with “CACTGACCATGGACCGGTTTTCCCGGTAATCCGTATTTGGG (site CACTGACCTCC)”, “CACTGCTCATGGACCGGTTTTCCCGGTAATCCGTATTTGCC (site CACTACTCTGG)” is higher in “recombinant UMI read abundance (log10)” value: 0.00646 for the first, 2 for the second.

Compared with “CACTGCTCATGGACCGGTTTTCCCGGTAATCCGTATTTGCC (site CACTCCTCTGG)”, “CACTGCTCATGGACCGGTTTTCCCGGTAATCCGTATTTGCC (site CACTGCTCTGG)” is higher in “recombinant UMI read abundance (log10)” value: 0 for the first, 2.93 for the second.

First: CACTGCTCATGGACCGGTTTTCCCGGTAATCCGTATTTGCC (site CACTTCTCTGG)
Second: CACTTCTCATGGACCGGTTTTCCCGGTAATCCGTATTTGCC (site CACTACTCTGG)
The “recombinant UMI read abundance (log10)” value of the first is lower: 0 for the first, 1.09 for the second.

Going from “CACTTCTCATGGACCGGTTTTCCCGGTAATCCGTATTTGCC (site CACTCCTCTGG)” to “CACTTCTCATGGACCGGTTTTCCCGGTAATCCGTATTTGCC (site CACTGCTCTGG)”, the “recombinant UMI read abundance (log10)” value falls from 1.41 to 0.

Going from “CACTTCTCATGGACCGGTTTTCCCGGTAATCCGTATTTGCC (site CACTTCTCTGG)” to “CACTTGACATGGACCGGTTTTCCCGGTAATCCGTATTTGGA (site CACTTGACTTC)”, the “recombinant UMI read abundance (log10)” value falls from 2.12 to 0.194.

Going from “CACTTGACATGGACCGGTTTTCCCGGTAATCCGTATTTGGA (site CACTTGCCTTC)” to “CACTTGACATGGACCGGTTTTCCCGGTAATCCGTATTTGGA (site CACTTGGCTTC)”, the “recombinant UMI read abundance (log10)” value rises from 0.0198 to 0.369.

Going from “CACTTGACATGGACCGGTTTTCCCGGTAATCCGTATTTGGA (site CACTTGTCTTC)” to “CACTTGGCATGGACCGGTTTTCCCGGTAATCCGTATTTGAA (site CACTTGGCTTA)”, the “recombinant UMI read abundance (log10)” value rises from 0.138 to 0.431.

First: CACTTGGCATGGACCGGTTTTCCCGGTAATCCGTATTTGAA (site CACTTGGCTTC)
Second: CACTTGGCATGGACCGGTTTTCCCGGTAATCCGTATTTGAA (site CACTTGGCTTG)
The “recombinant UMI read abundance (log10)” value of the first is lower: 0.236 for the first, 1.05 for the second.

Going from “CACTTGGCATGGACCGGTTTTCCCGGTAATCCGTATTTGAA (site CACTTGGCTTT)” to “CACTTGGCATGGACCGGTTTTCCCGGTAATCCGTATTTGGT (site CACTTGGCTAC)”, the “recombinant UMI read abundance (log10)” value rises from 1.33 to 1.79.

With “CACTTGGCATGGACCGGTTTTCCCGGTAATCCGTATTTGGT (site CACTTGGCTCC)” the “recombinant UMI read abundance (log10)” value was 0.103.
